Source: publication PMC3639963, “A New Class of Small Molecule Inhibitor of BMP Signaling” (PLoS ONE, 2013)

Experiments:
Assay in all cases: Nanosyn kinase profiling
Type in all cases: biochemical
Settings in all cases: read-out: Percentage inhibition; for inhibition at 0.1 µM: 0.1 µM inhibitor; for inhibition at 1 µM: 1 µM inhibitor
PRKD2 = molecular target: T1, PRKD2 (Homo sapiens, UniProt Q9BZL6)
T1 construct: purchased Nanosyn (enzymatic panel); SGC in-house recombinant human kinases (DSF panel); Invitrogen (ALK1-6)
T1 sequence (Q9BZL6 1-878): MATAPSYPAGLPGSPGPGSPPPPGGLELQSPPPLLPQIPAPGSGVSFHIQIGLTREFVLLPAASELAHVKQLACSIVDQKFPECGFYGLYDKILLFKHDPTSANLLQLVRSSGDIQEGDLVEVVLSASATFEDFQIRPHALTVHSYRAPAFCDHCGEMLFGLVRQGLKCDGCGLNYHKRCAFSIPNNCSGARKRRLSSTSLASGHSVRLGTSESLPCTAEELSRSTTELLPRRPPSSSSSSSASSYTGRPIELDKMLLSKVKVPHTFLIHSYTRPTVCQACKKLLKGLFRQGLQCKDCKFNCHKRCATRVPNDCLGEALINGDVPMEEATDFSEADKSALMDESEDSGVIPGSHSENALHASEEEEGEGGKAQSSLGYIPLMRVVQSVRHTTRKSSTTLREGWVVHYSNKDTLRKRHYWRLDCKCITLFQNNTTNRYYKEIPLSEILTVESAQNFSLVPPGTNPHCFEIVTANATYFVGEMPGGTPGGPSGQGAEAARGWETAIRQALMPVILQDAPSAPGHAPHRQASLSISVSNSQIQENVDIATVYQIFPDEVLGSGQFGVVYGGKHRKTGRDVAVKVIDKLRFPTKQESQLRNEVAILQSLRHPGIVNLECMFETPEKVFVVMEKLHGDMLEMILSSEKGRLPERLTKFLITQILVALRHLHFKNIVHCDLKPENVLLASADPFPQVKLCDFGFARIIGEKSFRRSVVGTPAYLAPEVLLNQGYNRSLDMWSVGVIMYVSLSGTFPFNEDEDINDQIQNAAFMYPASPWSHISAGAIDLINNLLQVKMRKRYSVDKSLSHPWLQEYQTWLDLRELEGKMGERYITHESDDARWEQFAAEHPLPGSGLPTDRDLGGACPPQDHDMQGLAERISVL
Method in brief: (§1)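 Percent inhibition of each kinase was measured with the inhibitor at 0.1 µM and at 1 µM, as part of a 200-kinase human selectivity panel.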

AURKC = molecular target: T2, AURKC (Homo sapiens, UniProt Q9UQB9)
T2 construct: purchased Nanosyn (enzymatic panel); SGC in-house recombinant human kinases (DSF panel); Invitrogen (ALK1-6)
T2 sequence (Q9UQB9 1-309): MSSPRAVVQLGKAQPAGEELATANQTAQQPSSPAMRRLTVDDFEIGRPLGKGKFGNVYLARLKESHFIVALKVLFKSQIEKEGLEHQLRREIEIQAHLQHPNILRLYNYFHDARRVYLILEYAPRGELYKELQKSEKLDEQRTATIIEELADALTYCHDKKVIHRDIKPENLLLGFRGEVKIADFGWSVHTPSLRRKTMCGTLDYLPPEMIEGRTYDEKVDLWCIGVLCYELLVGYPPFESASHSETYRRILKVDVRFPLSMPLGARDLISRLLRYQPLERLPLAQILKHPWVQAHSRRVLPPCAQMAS
Method in brief: as §1

BMX = molecular target: T3, BMX (Homo sapiens, UniProt P51813)
T3 construct: purchased Nanosyn (enzymatic panel); SGC in-house recombinant human kinases (DSF panel); Invitrogen (ALK1-6)
T3 sequence (P51813 1-675): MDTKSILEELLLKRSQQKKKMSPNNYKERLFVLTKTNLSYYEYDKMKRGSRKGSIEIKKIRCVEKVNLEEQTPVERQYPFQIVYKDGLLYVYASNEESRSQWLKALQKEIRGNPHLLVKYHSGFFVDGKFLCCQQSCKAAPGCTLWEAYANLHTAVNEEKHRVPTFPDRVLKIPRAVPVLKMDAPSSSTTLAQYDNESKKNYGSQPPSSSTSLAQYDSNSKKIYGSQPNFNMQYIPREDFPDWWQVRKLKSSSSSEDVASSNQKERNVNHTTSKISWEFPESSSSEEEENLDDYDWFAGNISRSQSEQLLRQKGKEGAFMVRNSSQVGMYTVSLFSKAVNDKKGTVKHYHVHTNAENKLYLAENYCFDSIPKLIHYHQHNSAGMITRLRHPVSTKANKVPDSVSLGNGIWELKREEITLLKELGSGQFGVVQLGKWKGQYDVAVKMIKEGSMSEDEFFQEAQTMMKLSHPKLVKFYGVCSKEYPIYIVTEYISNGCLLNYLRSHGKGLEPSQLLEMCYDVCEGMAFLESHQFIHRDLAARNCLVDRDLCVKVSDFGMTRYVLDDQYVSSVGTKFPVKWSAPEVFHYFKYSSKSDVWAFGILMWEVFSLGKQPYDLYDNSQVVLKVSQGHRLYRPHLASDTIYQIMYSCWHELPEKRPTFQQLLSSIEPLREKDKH
Method in brief: as §1

HIPK1 = molecular target: T4, HIPK1 (Homo sapiens, UniProt Q86Z02)
T4 construct: purchased Nanosyn (enzymatic panel); SGC in-house recombinant human kinases (DSF panel); Invitrogen (ALK1-6)
Method in brief: as §1

PAK3 = molecular target: T5, PAK3 (Homo sapiens, UniProt O75914)
T5 construct: purchased Nanosyn (enzymatic panel); SGC in-house recombinant human kinases (DSF panel); Invitrogen (ALK1-6)
Method in brief: as §1

GSK3α = molecular target: T6, GSK3α (Homo sapiens, UniProt P49840)
T6 construct: purchased Nanosyn (enzymatic panel); SGC in-house recombinant human kinases (DSF panel); Invitrogen (ALK1-6)
Method in brief: as §1

T5 sequence (O75914 whole entry): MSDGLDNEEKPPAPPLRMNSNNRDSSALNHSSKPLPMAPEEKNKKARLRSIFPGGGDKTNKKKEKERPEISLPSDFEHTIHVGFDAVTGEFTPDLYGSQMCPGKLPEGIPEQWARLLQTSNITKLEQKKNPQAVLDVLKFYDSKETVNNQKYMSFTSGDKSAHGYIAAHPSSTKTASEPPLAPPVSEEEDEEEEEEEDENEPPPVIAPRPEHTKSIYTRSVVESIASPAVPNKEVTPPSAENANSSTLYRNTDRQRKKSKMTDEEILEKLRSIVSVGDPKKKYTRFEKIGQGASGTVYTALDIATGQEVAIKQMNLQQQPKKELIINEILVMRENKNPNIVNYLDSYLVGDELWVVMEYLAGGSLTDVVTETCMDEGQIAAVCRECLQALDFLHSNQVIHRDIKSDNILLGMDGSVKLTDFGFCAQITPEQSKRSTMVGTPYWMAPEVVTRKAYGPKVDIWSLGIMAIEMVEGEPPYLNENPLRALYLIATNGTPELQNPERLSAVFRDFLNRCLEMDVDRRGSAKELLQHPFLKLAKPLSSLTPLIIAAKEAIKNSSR
T4 sequence (Q86Z02 whole entry): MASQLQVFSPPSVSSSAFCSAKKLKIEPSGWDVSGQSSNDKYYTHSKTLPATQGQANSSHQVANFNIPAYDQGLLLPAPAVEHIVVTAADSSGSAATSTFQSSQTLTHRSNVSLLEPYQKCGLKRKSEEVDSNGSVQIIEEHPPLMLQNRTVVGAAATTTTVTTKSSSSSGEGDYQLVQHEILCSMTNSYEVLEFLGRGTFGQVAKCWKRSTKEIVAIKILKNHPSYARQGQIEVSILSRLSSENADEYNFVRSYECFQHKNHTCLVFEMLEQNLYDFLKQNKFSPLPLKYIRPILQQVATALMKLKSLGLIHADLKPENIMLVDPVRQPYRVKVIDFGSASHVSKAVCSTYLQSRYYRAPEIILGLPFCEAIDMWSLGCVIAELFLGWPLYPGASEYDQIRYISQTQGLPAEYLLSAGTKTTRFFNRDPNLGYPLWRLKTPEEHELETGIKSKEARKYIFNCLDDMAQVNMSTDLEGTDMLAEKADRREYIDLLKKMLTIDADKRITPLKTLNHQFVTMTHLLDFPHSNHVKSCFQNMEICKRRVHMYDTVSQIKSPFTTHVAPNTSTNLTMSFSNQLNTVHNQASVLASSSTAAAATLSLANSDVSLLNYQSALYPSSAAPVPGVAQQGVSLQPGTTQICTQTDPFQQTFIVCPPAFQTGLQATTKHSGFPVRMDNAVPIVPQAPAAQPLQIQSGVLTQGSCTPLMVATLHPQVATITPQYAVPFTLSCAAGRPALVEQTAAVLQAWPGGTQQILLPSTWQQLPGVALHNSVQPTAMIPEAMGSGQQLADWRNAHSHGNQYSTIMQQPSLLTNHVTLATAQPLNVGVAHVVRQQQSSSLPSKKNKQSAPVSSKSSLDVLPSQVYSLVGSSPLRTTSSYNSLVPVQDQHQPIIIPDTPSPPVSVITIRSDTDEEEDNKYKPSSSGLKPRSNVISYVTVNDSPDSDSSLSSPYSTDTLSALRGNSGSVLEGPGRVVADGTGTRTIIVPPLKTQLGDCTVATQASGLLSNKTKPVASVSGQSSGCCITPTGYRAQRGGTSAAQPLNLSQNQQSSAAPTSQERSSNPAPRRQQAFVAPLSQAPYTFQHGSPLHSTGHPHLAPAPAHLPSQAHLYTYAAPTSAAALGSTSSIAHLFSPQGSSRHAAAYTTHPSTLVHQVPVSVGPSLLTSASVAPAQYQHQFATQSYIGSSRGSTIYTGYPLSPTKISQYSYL
T6 sequence (P49840 whole entry): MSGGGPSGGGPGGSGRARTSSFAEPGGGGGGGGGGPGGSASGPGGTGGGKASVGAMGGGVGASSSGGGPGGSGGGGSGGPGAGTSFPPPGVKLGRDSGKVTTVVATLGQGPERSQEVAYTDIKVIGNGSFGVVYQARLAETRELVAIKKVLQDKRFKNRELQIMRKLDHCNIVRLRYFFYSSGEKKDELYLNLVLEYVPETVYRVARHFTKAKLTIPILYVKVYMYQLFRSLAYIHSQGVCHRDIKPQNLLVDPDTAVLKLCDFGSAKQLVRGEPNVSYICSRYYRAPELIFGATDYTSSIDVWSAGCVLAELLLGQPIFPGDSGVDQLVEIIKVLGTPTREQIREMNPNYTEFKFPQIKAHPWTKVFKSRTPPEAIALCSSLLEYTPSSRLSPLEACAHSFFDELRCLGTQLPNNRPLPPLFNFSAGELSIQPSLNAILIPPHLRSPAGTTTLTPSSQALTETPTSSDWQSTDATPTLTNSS

| Structure (SMILES) | inhibition at 0.1 µM (PRKD2) [%] | inhibition at 1 µM (PRKD2) [%] | inhibition at 0.1 µM (AURKC) [%] | inhibition at 1 µM (AURKC) [%] | inhibition at 0.1 µM (BMX) [%] | inhibition at 1 µM (BMX) [%] | inhibition at 0.1 µM (HIPK1) [%] | inhibition at 1 µM (HIPK1) [%] | inhibition at 0.1 µM (PAK3) [%] | inhibition at 1 µM (PAK3) [%] | inhibition at 0.1 µM (GSK3α) [%] | inhibition at 1 µM (GSK3α) [%] |
| --- | --- | --- | --- | --- | --- | --- | --- | --- | --- | --- | --- | --- |
| COc1cc(-c2cc(-c3cccc(O)c3)cnc2N)cc(OC)c1OC [K02288, 3-[6-amino-5-(3,4,5-trimethoxy-phenyl)-pyridin-3-yl]-phenol] | 0.6 | 6.6 | -1 | 3.2 | 0.5 | 19 | 1.7 | 3.1 | -3 | -2 | 0.6 | 2.1 |
| c1ccc2c(-c3cnn4cc(-c5ccc(N6CCNCC6)cc5)cnc34)ccnc2c1 [LDN-193189] | 4.5 | 13 | 4.2 | 25 | 0.2 | 4 | 0.6 | 4.4 | 2.9 | 1.8 | 3.2 | 1.1 |
